Laboratory results from patent US8420817B2, “Tricyclic N-heteroaryl-carboxamide derivatives, preparation and therapeutic use thereof” (Sanofi, priority 2007, dated 2013).

Row | melting point [°C] | Structure (SMILES)
1 | 129 to 130 | O=C(Nc1cnc2c(c1)nc1n2CCC1c1ccccc1)c1cc2cc(C(F)(F)F)ccc2n1Cc1cccc(F)c1 (racemic) [Compound 30, N-(6-Phenyl-7,8-dihydro-6H-pyrrolo[2′,1′:2,3]imidazo[4,5-b]pyridin-3-yl)-5-trifluoromethyl-1-(3-fluorobenzyl)-1H-indole-2-carboxamide]
2 | 218 to 220 | NC1CCn2c1nc1cc(NC(=O)c3cc4cc(F)ccc4n3Cc3cccc(F)c3)cnc12 (racemic) [Compound 34, N-(6-Amino-7,8-dihydro-6H-pyrrolo[2′,1′:2,3]imidazo[4,5-b]pyridin-3-yl)-5-fluoro-1-(3-fluorobenzyl)-1H-indole-2-carboxamide]
3 | 282 to 283 | CC(=O)NC1CCn2c1nc1cc(NC(=O)c3cc4cc(F)ccc4n3Cc3cccc(F)c3)cnc12 (racemic) [Compound 35, N-(6-Acetylamino-7,8-dihydro-6H-pyrrolo[2′,1′:2,3]imidazo[4,5-b]pyridin-3-yl)-5-fluoro-1-(3-fluorobenzyl)-1H-indole-2-carboxamide]
4 | 269 to 271 | O=C(Nc1cnc2c(c1)nc1n2CCC1O)c1cc2ccc(C(F)(F)F)cc2n1Cc1cccc(F)c1 (single isomer, unassigned; (-)) [Compound 28, (−)-N-(6-Hydroxy-7,8-dihydro-6H-pyrrolo[2′,1′:2,3]imidazo[4,5-b]pyridin-3-yl)-6-trifluoromethyl-1-(3-fluorobenzyl)-1H-indole-2-carboxamide]
5 | 203 to 205 | CN(C)C1CCn2c1nc1cc(NC(=O)c3cc4cc(C(F)(F)F)ccc4n3Cc3cccc(F)c3)cnc12 (single isomer, unassigned; (-)) [Compound 33, (−)-N-(6-Dimethylamino-7,8-dihydro-6H-pyrrolo[2′,1′:2,3]imidazo[4,5-b]pyridin-3-yl)-5-trifluoromethyl-1-(3-fluorobenzyl)-1H-indole-2-carboxamide]
6 | 279 to 280 | O=C(Nc1cnc2c(c1)nc1n2CCC1O)c1cc2cc(C(F)(F)F)cnc2n1Cc1cccc(F)c1 (single isomer, unassigned; (-)) [Compound 36, (−)-N-(6-Hydroxy-7,8-dihydro-6H-pyrrolo[2′,1′:2,3]imidazo[4,5-b]pyridin-3-yl)-5-trifluoromethyl-1-(3-fluorobenzyl)-1H-pyrrolo[2,3-b]pyridine-2-carboxamide]
7 | 244 to 245 | CC(C)(C)c1ccc2cc(C(=O)Nc3cnc4c(c3)nc3n4CCC3)n(Cc3cccc(F)c3)c2c1 [Compound 19, N-(7,8-Dihydro-6H-pyrrolo[2′,1′:2,3]imidazo[4,5-b]pyridin-3-yl)-6-tertbutyl-1-(3-fluorobenzyl)-1H-indole-2-carboxamide]
8 | 275 to 277 | CS(=O)(=O)c1ccc2c(c1)cc(C(=O)Nc1cnc3c(c1)nc1n3CCC1)n2Cc1cccc(F)c1 [Compound 21, N-(7,8-Dihydro-6H-pyrrolo[2′,1′:2,3]imidazo[4,5-b]pyridin-3-yl)-5-methylsulfonyl-1-(3-fluorobenzyl)-1H-indole-2-carboxamide]
9 | 222 to 223 | CSc1ccc2cc(C(=O)Nc3cnc4c(c3)nc3n4CCC3)n(Cc3cccc(F)c3)c2c1 [Compound 22, N-(7,8-Dihydro-6H-pyrrolo[2′,1′:2,3]imidazo[4,5-b]pyridin-3-yl)-6-methylthio-1-(3-fluorobenzyl)-1H-indole-2-carboxamide]
10 | 272 to 273 | O=C(Nc1cnc2c(c1)nc1n2CCC1)c1cc2ccc(C(F)(F)F)nc2n1Cc1cccc(F)c1 [Compound 23, N-(7,8-Dihydro-6H-pyrrolo[2′,1′:2,3]imidazo[4,5-b]pyridin-3-yl)-6-trifluoromethyl-1-(3-fluorobenzyl)-1H-pyrrolo[2,3-b]pyridine-2-carboxamide]

Continued, compound first:

Row | Structure (SMILES) | melting point [°C]
11 | O=C(Nc1cnc2c(c1)nc1n2CCC1)c1cc2ccc(Cl)cc2n1Cc1cccc(F)c1 | 252 to 253
12 | O=C(Nc1cnc2c(c1)nc1n2CCC1)c1cc2cc(Cl)ccc2n1Cc1cccc(F)c1 | 263 to 264
13 | O=C(Nc1cnc2c(c1)nc1n2CCC1)c1cc2ccccc2n1Cc1cccc(F)c1 | 243 to 244
14 | Cc1cccc2c1cc(C(=O)Nc1cnc3c(c1)nc1n3CCC1)n2Cc1cccc(F)c1 | 303 to 304
15 | Cc1ccc2cc(C(=O)Nc3cnc4c(c3)nc3n4CCC3)n(Cc3cccc(F)c3)c2c1 | 182 to 183
16 | Cc1ccc2c(c1)cc(C(=O)Nc1cnc3c(c1)nc1n3CCC1)n2Cc1cccc(F)c1 | 237 to 238
17 | CCc1ccc2cc(C(=O)Nc3cnc4c(c3)nc3n4CCC3)n(Cc3cccc(F)c3)c2c1 | 224 to 226
18 | Cc1ccc(C)c2c1cc(C(=O)Nc1cnc3c(c1)nc1n3CCC1)n2Cc1cccc(F)c1 | 286 to 288
19 | O=C(Nc1cnc2c(c1)nc1n2CCC1)c1cc2cc(F)cnc2n1Cc1cccc(F)c1 | 242 to 243
20 | O=C(Nc1cnc2c(c1)nc1n2CCC1)c1cc2c(F)cccc2n1Cc1cccc(F)c1 | 265 to 266
21 | O=C(Nc1cnc2c(c1)nc1n2CCC1)c1cc2cccc(F)c2n1Cc1cccc(F)c1 | 237 to 239
22 | O=C(Nc1cnc2c(c1)nc1n2CCC1)c1cc2ccc(F)cc2n1Cc1cccc(F)c1 | 235 to 236
23 | O=C(Nc1cnc2c(c1)nc1n2CCC1)c1cc2c(Cl)cccc2n1Cc1cccc(F)c1 | 302 to 303
24 | O=C(Nc1cnc2c(c1)nc1n2CCC1O)c1cc2cc(F)ccc2n1Cc1cccc(F)c1 (racemic) | 288 to 290
25 | CC(=O)OC1CCn2c1nc1cc(NC(=O)c3cc4cc(F)ccc4n3Cc3cccc(F)c3)cnc12 (racemic) [Compound 2, N-(6-Acetoxy-7,8-dihydro-6H-pyrrolo[2′,1′:2,3]imidazo[4,5-b]pyridin-3-yl)-5-fluoro-1-(3-fluorobenzyl)-1H-indole-2-carboxamide] | 139 to 141
26 | O=C(Nc1cnc2c(c1)nc1n2CCC1)c1cc2ccc(C(F)(F)F)cc2n1Cc1cccc(F)c1 [Compound 7, N-(7,8-Dihydro-6H-pyrrolo[2′,1′:2,3]imidazo[4,5-b]pyridin-3-yl)-6-trifluoromethyl-1-(3-fluorobenzyl)-1H-indole-2-carboxamide] | 261 to 262
27 | O=C(Nc1cnc2c(c1)nc1n2CCC1)c1cc2cc(C(F)(F)F)ccc2n1Cc1cccc(F)c1 [Compound 8, N-(7,8-Dihydro-6H-pyrrolo[2′,1′:2,3]imidazo[4,5-b]pyridin-3-yl)-5-trifluoromethyl-1-(3-fluorobenzyl)-1H-indole-2-carboxamide] | 223 to 225
28 | CC(C)c1ccc2cc(C(=O)Nc3cnc4c(c3)nc3n4CCC3)n(Cc3cccc(F)c3)c2c1 [Compound 17, N-(7,8-Dihydro-6H-pyrrolo[2′,1′:2,3]imidazo[4,5-b]pyridin-3-yl)-6-isopropyl-1-(3-fluorobenzyl)-1H-indole-2-carboxamide] | 275 to 278
29 | CC(C)(C)c1ccc2c(c1)cc(C(=O)Nc1cnc3c(c1)nc1n3CCC1)n2Cc1cccc(F)c1 [Compound 18, N-(7,8-Dihydro-6H-pyrrolo[2′,1′:2,3]imidazo[4,5-b]pyridin-3-yl)-5-tertbutyl-1-(3-fluorobenzyl)-1H-indole-2-carboxamide] | 234 to 236
